# From patent publication US20250109118A1, “HETEROCYCLIC COMPOUNDS AS SHP2 INHIBITORS, COMPOSITIONS COMPRISING THE HETEROCYCLIC COMPOUND, AND METHODS OF USE THEREOF” (JS INNOMED HOLDINGS LTD., priority 2021, published 2025)
# System: MiaPaCa-2 cells
# Test: MiaPaCa-2 Cell proliferation assay in 3D culture (CCK8)
# Type: cell-based
# Details: Homo sapiens, MIA PaCa-2, 120 h; 3D spheroid culture, 5 days with compound, CCK8 readout
# Description: MiaPaCa-2 Cell proliferation assay in 3D culture. To evaluate cell viability, MiaPaCa-2 cells in logarithmic growth phase were seeded at optimal density and grown in as spheroids. Cells were incubated for 24 hours prior to the addition of different concentrations of the compounds. Cells were cultured with the compounds for 5 days and the cell viability was assessed using CCK8. Briefly, 2500 cells were seeded in round bottom ultra-low attachment 96 well plates (coming) in growth media supplemented with 10% FBS and incubated at 37° C. for 24 hours. The compounds were dissolved in DMSO (Sigma) to obtain 10 mM stock solution. Then the compounds were serially diluted in 3-fold to ten concentrations; 5 μL of the dilution above was transferred to 95 uL culture media to obtain the 50× compound stock solution; 4 uL of the 50× compound above was then transferred to the wells containing cells with 196 μL of the culture medium to obtain the final 1× concentration. The final concentration of DMSO was 0.1%. Spheroid cells were incubated in compounds for 5 days. Then 20 μL WST-8 solution (DOJINDO, Cell Counting KIT-8) was added to each well. The plates were further incubated at 37° C. for 1.5 hours, and then absorbance at 450 nm was measured using a microplate reader. Each compound was tested in triplicate and the IC50 value was calculated using GraphPad Prism.
# The IC50 values of for Compounds disclosed are listed in Table 2, A: ≤500 nM; B: >500 nM and ≤5 μM; C: >5 μM and ≤50 μM; and D: >50 μM.
row,IC50 [nM],SMILES
1,≤ 500,"C[C@@H]1OCC2(CCN(c3cnc(Sc4ccnc(NC(=O)NS(=O)(=O)c5cccc(F)c5)c4Cl)cn3)CC2)[C@@H]1N [Example 50, N-((4-((5-((3S,4S)-4-amino-3-methyl-2-oxa-8-azaspiro[4.5]decan-8-yl)pyrazin-2-yl)thio)-3-chloropyridin-2-yl)carbamoyl)-3-fluorobenzenesulfonamide]"
2,500 to 5000,"N[C@@H]1c2ncccc2CC12CCN(c1cnc(Sc3ccnc(NC(=O)NS(=O)(=O)c4ccccc4)c3Cl)cn1)CC2 [Example 14, (S)—N-((4-((5-(7-amino-5,7-dihydrospiro[cyclopenta[b]pyridine-6,4′-piperidin]-1′-yl)pyrazin-2-yl)thio)-3-chloropyridin-2-yl)carbamoyl)benzenesulfonamide]"
3,≤ 500,"C[C@@H]1OCC2(CCN(c3cnc(Sc4cccc(NC(=O)NS(=O)(=O)C5CCN(C)CC5)c4Cl)cn3)CC2)[C@@H]1N [Example 70, N-((3-((5-((3S,4S)-4-amino-3-methyl-2-oxa-8-azaspiro[4.5]decan-8-yl)pyrazin-2-yl)thio)-2-chlorophenyl)carbamoyl)-1-methylpiperidine-4-sulfonamide]"
4,≤ 500,"C[C@@H]1OCC2(CCN(c3cnc(Sc4cccc(NC(=O)NS(=O)(=O)N5CCCCC5)c4Cl)cn3)CC2)[C@@H]1N [Example 75, N-((3-((5-((3S,4S)-4-amino-3-methyl-2-oxa-8-azaspiro[4.5]decan-8-yl)pyrazin-2-yl)thio)-2-chlorophenyl)carbamoyl)piperidine-1-sulfonamide]"
5,500 to 5000,"C[C@@H]1OCC2(CCN(c3cnc(Sc4ccnc(NC(=O)NS(=O)(=O)c5cccnc5)c4Cl)cn3)CC2)[C@@H]1N [Example 51, N-((4-((5-((3S,4S)-4-amino-3-methyl-2-oxa-8-azaspiro[4.5]decan-8-yl)pyrazin-2-yl)thio)-3-chloropyridin-2-yl)carbamoyl)pyridine-3-sulfonamide]"
6,≤ 500,"Cc1nc(N2CCC(C)(CN)CC2)c(CO)nc1Sc1ccnc(NC(=O)NS(=O)(=O)c2ccccc2)c1Cl [Example 9, N-((4-((5-(4-(aminomethyl)-4-methylpiperidin-1-yl)-6-(hydroxymethyl)-3-methylpyrazin-2-yl)thio)-3-chloropyridin-2-yl)carbamoyl)benzenesulfonamide]"
7,≤ 500,"C[C@@H]1OCC2(CCN(c3cnc(Sc4cccc(NC(=O)NS(=O)(=O)N5CCCC5)c4Cl)cn3)CC2)[C@@H]1N [Example 13, N-((3-((5-((3S,4S)-4-amino-3-methyl-2-oxa-8-azaspiro[4.5]decan-8-yl)pyrazin-2-yl)thio)-2-chlorophenyl)carbamoyl)pyrrolidine-1-sulfonamide]"
8,≤ 500,"C[C@@H]1OCC2(CCN(c3cnc(Sc4cccc(NC(=O)NS(=O)(=O)N5CCOCC5)c4Cl)cn3)CC2)[C@@H]1N [Example 74, N-((3-((5-((3S,4S)-4-amino-3-methyl-2-oxa-8-azaspiro[4.5]decan-8-yl)pyrazin-2-yl)thio)-2-chlorophenyl)carbamoyl)morpholine-4-sulfonamide]"
9,≤ 500,"C[C@@H]1OCC2(CCN(c3cnc(Sc4cccc(NC(=O)NS(=O)(=O)c5ccncc5)c4Cl)cn3)CC2)[C@@H]1N [Example 72, N-((3-((5-((3S,4S)-4-amino-3-methyl-2-oxa-8-azaspiro[4.5]decan-8-yl)pyrazin-2-yl)thio)-2-chlorophenyl)carbamoyl)pyridine-4-sulfonamide]"
10,500 to 5000,"C[C@@H]1OCC2(CCN(c3cnc(Sc4ccnc(C(=O)NS(=O)(=O)c5ccccc5)c4Cl)cn3)CC2)[C@@H]1N [Example 71, 4-((5-((3S,4S)-4-amino-3-methyl-2-oxa-8-azaspiro[4.5]decan-8-yl)pyrazin-2-yl)thio)-3-chloro-N-(phenylsulfonyl)picolinamide]"
11,≤ 500,"C[C@@H]1OCC2(CCN(c3cnc(Sc4cccc(NC(=O)NS(=O)(=O)c5cccnc5)c4Cl)cn3)CC2)[C@@H]1N [Example 61, N-((3-((5-((3S,4S)-4-amino-3-methyl-2-oxa-8-azaspiro[4.5]decan-8-yl)pyrazin-2-yl)thio)-2-chlorophenyl)carbamoyl)pyridine-3-sulfonamide]"
12,≤ 500,"Cc1noc(C)c1S(=O)(=O)NC(=O)Nc1nccc(Sc2cnc(N3CCC4(CC3)CO[C@@H](C)[C@H]4N)cn2)c1Cl [Example 76, N-((4-((5-((3S,4S)-4-amino-3-methyl-2-oxa-8-azaspiro[4.5]decan-8-yl)pyrazin-2-yl)thio)-3-chloropyridin-2-yl)carbamoyl)-3,5-dimethylisoxazole-4-sulfonamide]"
13,500 to 5000,"C[C@@H]1OCC2(CCN(c3cnc(Sc4cncc(NC(=O)NS(=O)(=O)c5ccccc5)c4Cl)cn3)CC2)[C@@H]1N [Example 60, N-((5-((5-((3S,4S)-4-amino-3-methyl-2-oxa-8-azaspiro[4.5]decan-8-yl)pyrazin-2-yl)thio)-4-chloropyridin-3-yl)carbamoyl)benzenesulfonamide]"
14,≤ 500,"C[C@@H]1OCC2(CCN(c3cnc(Sc4cccc(NC(=O)NS(=O)(=O)c5cccc(F)c5)c4Cl)cn3)CC2)[C@@H]1N [Example 62, N-((3-((5-((3S,4S)-4-amino-3-methyl-2-oxa-8-azaspiro[4.5]decan-8-yl)pyrazin-2-yl)thio)-2-chlorophenyl)carbamoyl)-3-fluorobenzenesulfonamide]"
15,≤ 500,"C[C@@H]1OCC2(CCN(c3cnc(Sc4cccc(NC(=O)NS(=O)(=O)C5CCCCC5)c4Cl)cn3)CC2)[C@@H]1N [Example 69, N-((3-((5-((3S,4S)-4-amino-3-methyl-2-oxa-8-azaspiro[4.5]decan-8-yl)pyrazin-2-yl)thio)-2-chlorophenyl)carbamoyl)cyclohexanesulfonamide]"
16,≤ 500,"C[C@@H]1OCC2(CCN(c3cnc(Sc4ccnc(NC(=O)NS(=O)(=O)c5ccc(F)cc5)c4Cl)cn3)CC2)[C@@H]1N [Example 53, N-((4-((5-((3S,4S)-4-amino-3-methyl-2-oxa-8-azaspiro[4.5]decan-8-yl)pyrazin-2-yl)thio)-3-chloropyridin-2-yl)carbamoyl)-4-fluorobenzenesulfonamide]"
17,≤ 500,"Cc1nc(N2CCC3(CC2)CO[C@@H](C)[C@H]3N)c(CO)nc1Sc1ccnc(NC(=O)NS(=O)(=O)c2ccccc2)c1Cl [Example 59, N-((4-((5-((3S,4S)-4-amino-3-methyl-2-oxa-8-azaspiro[4.5]decan-8-yl)-6-(hydroxymethyl)-3-methylpyrazin-2-yl)thio)-3-chloropyridin-2-yl)carbamoyl)benzenesulfonamide]"
18,≤ 500,"C[C@@H]1OCC2(CCN(c3cnc(Sc4cccc(NC(=O)NS(=O)(=O)C5CCOC5)c4Cl)cn3)CC2)[C@@H]1N (stereo partly drawn) [Example 83, N-((3-((5-((3S,4S)-4-amino-3-methyl-2-oxa-8-azaspiro[4.5]decan-8-yl)pyrazin-2-yl)thio)-2-chlorophenyl)carbamoyl)tetrahydrofuran-3-sulfonamide]"
19,≤ 500,"C[C@@H]1OCC2(CCN(c3cnc(Sc4cccc(S(=O)(=O)NC(=O)NC5CCCC5)c4Cl)cn3)CC2)[C@@H]1N [Example 17, 3-((5-((3S,4S)-4-amino-3-methyl-2-oxa-8-azaspiro[4.5]decan-8-yl)pyrazin-2-yl)thio)-2-chloro-N-(cyclopentylcarbamoyl)benzenesulfonamide]"
20,≤ 500,"CC1(CN)CCN(c2cnc(Sc3cccc(NC(=O)NS(=O)(=O)c4cccnc4)c3Cl)c(N)n2)CC1 [Example 46, N-((3-((3-amino-5-(4-(aminomethyl)-4-methylpiperidin-1-yl)pyrazin-2-yl)thio)-2-chlorophenyl)carbamoyl)pyridine-3-sulfonamide]"
21,≤ 500,"N[C@@H]1c2cnccc2CC12CCN(c1cnc(Sc3cccc(NC(=O)NS(=O)(=O)c4ccccc4)c3Cl)cn1)CC2 [Example 67, (S)—N-((3-((5-(7-amino-5,7-dihydrospiro[cyclopenta[c]pyridine-6,4′-piperidin]-1′-yl)pyrazin-2-yl)thio)-2-chlorophenyl)carbamoyl)benzenesulfonamide]"
22,≤ 500,"C[C@@H]1OCC2(CCN(c3cnc(Sc4cccc(NS(=O)(=O)NC(=O)c5ccccc5)c4Cl)cn3)CC2)[C@@H]1N [Example 80, N—(N-(3-((5-((3S,4S)-4-amino-3-methyl-2-oxa-8-azaspiro[4.5]decan-8-yl)pyrazin-2-yl)thio)-2-chlorophenyl)sulfamoyl)benzamide]"
23,≤ 500,"CC1(CN)CCN(c2cnc(Sc3ccnc(NC(=O)NS(=O)(=O)c4ccccc4)c3Cl)cn2)CC1 [Example 48, N-((4-((5-(4-(aminomethyl)-4-methylpiperidin-1-yl)pyrazin-2-yl)thio)-3-chloropyridin-2-yl)carbamoyl)benzenesulfonamide]"
24,≤ 500,"CC1(CN)CCN(c2cnc(Sc3cccc(C(=O)NS(=O)(=O)C4CCCC4)c3Cl)c(N)n2)CC1 [Example 44, 3-((3-amino-5-(4-(aminomethyl)-4-methylpiperidin-1-yl)pyrazin-2-yl)thio)-2-chloro-N-(cyclopentylsulfonyl)benzamide]"
25,≤ 500,"Cc1nc(N2CCC3(CC2)CO[C@@H](C)[C@H]3N)c(CO)nc1Sc1cccc(NC(=O)NS(=O)(=O)c2ccccc2)c1Cl [Example 11, N-((3-((5-((3S,4S)-4-amino-3-methyl-2-oxa-8-azaspiro[4.5]decan-8-yl)-6-(hydroxymethyl)-3-methylpyrazin-2-yl)thio)-2-chlorophenyl)carbamoyl)benzenesulfonamide]"
